Data as given in article PMC9699089 (Pathogens, 2022).

Columns and labels:
[1] = test system: Plasmodium falciparum CQ-resistant strain W2; experiment: In vitro antiplasmodial activity, SYBR Green I fluorescence-based method, strain W2; format: cell-based; conditions: CQ-resistant strain W2, 48 h incubation, mean of three independent experiments, read-out: P. falciparum Strains IC50 Values W2
Experimental: (§1) The in vitro antiplasmodial activities were tested over concentrations ranging from 39 nM to 40 µM against culture-adapted Plasmodium falciparum reference strains 3D7 and W2. […] These two strains are obtained from the collection of the National Museum of Natural History (Paris, France). The parasites were cultivated in RPMI medium (Sigma Aldrich, Lyon, France) supplemented with 0.5% Albumax I (Life Technologies Corporation, Paisley, UK), hypoxanthine (Sigma Aldrich), and gentamicin (Sigma Aldrich) with human erythrocytes and were incubated at 37 °C in a candle jar, as described previously. The P. falciparum drug susceptibility test was carried out in 96-well flat bottom sterile plates in a final volume of 250 µL. After 48 h incubation period with the drugs, quantities of DNA in treated and control cultures of parasites in human erythrocytes were quantified using the SYBR Green I (Sigma Aldrich) fluorescence-based method. Briefly, after incubation, plates were frozen at -20 °C until use. Plates were then thawed for 2 h at room temperature, and 100 µL of each homogenized culture was transferred to a well of a 96-well flat bottom sterile black plate (Nunc, Inc.) that contained 100 µL of the SYBR Green I lysis buffer (2xSYBR Green, 20 mM Tris base pH 7.5, 5 mM EDTA, 0.008% w/v saponin, 0.08% w/v Triton X-100). […] Plates were incubated for 1 h at room temperature and then read on a fluorescence plate reader (Tecan, Austria) using excitation and emission wavelengths of 485 and 535 nm, respectively.

[2] = test system: Plasmodium falciparum CQ-sensitive strain 3D7; experiment: In vitro antiplasmodial activity, SYBR Green I fluorescence-based method, strain 3D7; format: cell-based; conditions: CQ-sensitive strain 3D7, 48 h incubation, mean of three independent experiments, read-out: P. falciparum Strains IC50 Values 3D7
Experimental: as §1

[3] = test system: Trypanosoma 9 and 11 chromosomic sequence FTrypBT (FEBR1T) G-quadruplex; experiment: FRET melting assay, FtrypBT; format: binding, Trypanosoma brucei brucei; conditions: compound 2 μM, oligonucleotide 0.2 μM, K+ conditions
Experimental: (§2) These were performed with dual-labeled oligonucleotides mimicking the Plasmodium telomeric sequences FPf1T [FAM-5′(GGGTTTA)3-GGG3′-TAMRA] and FPf8T [FAM-5′(GGGTTCA)3GGG3′-TAMRA], the Trypanosoma 9 and 11 chromosomic sequence FTrypBT (also named FEBR1T) [FAM-5′[…]3′-TAMRA], the human telomeric sequence F21T [FAM-(GGGTTA)3-GGG3′-TAMRA] and the human duplex sequence FdxT [FAM5′-[…]-hexaethyleneglycol-[…]3′-TAMRA] [27, 31, 47]. The oligonucleotides were pre-folded in 10 mM lithium cacodylate buffer (pH 7.2), with 10 mM KCl and 90 mM LiCl (K^+ condition). The FAM emissions were recorded at 516 nm using a 492-nm excitation wavelength in the absence and presence of a single compound as a function of temperature (25 to 95 °C) in 96-well microplates using a Stratagene MX3000P real-time PCR device at a rate of 1 °C∙min-1. Data were normalized between 0 and 1, and the required temperature for half-denaturation of oligonucleotides corresponding to the emission value of 0.5 was taken as the Tm. Each experiment was performed in duplicate with 0.2 µM of labeled oligonucleotide and 2 µM of compound under K^+ condition. For each compound, three independent experiments were carried out.

[4] = test system: T. brucei brucei AnTat 1.9; experiment: In vitro antitrypanosomal activity, Alamar Blue assay; format: cell-based, Trypanosoma brucei brucei; conditions: Trypanosoma brucei, slender bloodstream trypomastigotes, AnTat 1.9 strain; mean +/- SD of three independent experiments; read-out: Trypanosoma brucei brucei IC50 Values Trypanos Antat 1.9
Experimental: The effects of the tested compounds on the growth of T. brucei brucei were assessed using an Alamar Blue® assay described by Räz et al. T. brucei brucei AnTat 1.9 ([…], Belgium) was cultured in MEM with Earle's salts, supplemented according to the protocol of Baltz et al. […] All doses were tested in duplicate. Appropriate controls treated with solvents 0.9% NaCl or DMSO or with suramin, pentamidine, eflornithine, and fexinidazole (reference drugs purchased from Sigma Aldrich and Fluorochem, UK) were added to each set of experiments. After 69 h incubation period at 37 °C, 10 μL of the viability marker Alamar Blue (Fisher) was added to each well, and the plates were incubated for 5 h. The plates were read in a PerkinElmer ENSPIRE (Germany) microplate reader using an excitation wavelength of 530 nm and an emission wavelength of 590 nm.

[5] = Cytotoxicity evaluation, MTT assay; format: cell-based, human; conditions: human
Experimental: These cells are a commonly used human hepatocarcinoma-derived cell line that has characteristics similar to those of primary hepatocytes. These cells express many hepatocyte-specific metabolic enzymes, thus enabling the cytotoxicity of tested product metabolites to be evaluated. […] Duplicate assays were performed for each sample. Each well was microscopically examined for precipitate formation before the medium was aspirated from the wells. After aspiration, 100 µL of MTT solution (0.5 mg/mL in medium without FCS) were then added to each well. […] The MTT solution was removed, and DMSO (100 µL) was added to dissolve the resulting blue formazan crystals. Plates were shaken vigorously (300 rpm) for 5 min. The absorbance was measured at 570 nm with 630 nm as reference wavelength in a BIO-TEK ELx808 Absorbance Microplate Reader. DMSO was used as blank and doxorubicin (Sigma Aldrich) as positive control. Cell viability was calculated as percentage of control (cells incubated without compound). The CC50 was determined from the dose-response curve using TableCurve 2D V5.0 software (Systat Software, Palo Alto, CA, USA).

[6] = test system: human telomeric sequence F21T G-quadruplex; experiment: FRET melting assay, F21T; format: binding; conditions: compound 2 μM, oligonucleotide 0.2 μM, K+ conditions
Experimental: as §2

[7] = test system: L. donovani (MHOM/IN/00/DEVI) promastigotes; experiment: In vitro antileishmanial activity on promastigotes, MTT assay; format: cell-based; conditions: Leishmania donovani, 72 h incubation, mean +/- SD of three independent experiments
Experimental: L. donovani (MHOM/IN/00/DEVI) used in this study was provided by the CNR Leishmania (Montpellier, France). The effects of the tested compounds on the growth of L. donovani (MHOM/IN/00/DEVI) promastigotes were assessed by MTT assay. Briefly, promastigotes in log-phase in Schneider’s medium supplemented with 20% fetal calf serum (FCS), 2 mM L-glutamine and antibiotics (100 U/mL penicillin and 100 µg/mL streptomycin), were incubated at an average density of 10^6 parasites/mL in sterile 96-well plates with various concentrations of compounds previously dissolved in DMSO (final concentration less than 0.5% v/v), in duplicate. […] Duplicate assays were performed for each sample. After the 72 h incubation period at 27 °C, parasite metabolic activity was determined. Each well was microscopically examined for precipitate formation. To each well was added 10 µL of 10 mg/mL MTT [3-(4,5-dimethylthiazol-2-yl)-2,5-diphenyltetrazolium bromide)] solution followed by 4 h incubation time. The enzyme reaction was stopped by addition of 100 µL of 50% isopropanol/10% sodium dodecyl sulfate. Plates were vigorously shaken (300 rpm) for 10 min, and the absorbance was measured at 570 nm with 630 nm as reference wavelength in a BIOTEK ELx808 Absorbance Microplate Reader (Agilent Technologies, Les Ulis, France). […] IC50 of the parasite’s growth (half maximal inhibitory concentration or IC50 values) were then calculated from the obtained experimental results using a previously described regression program. IC50 values were calculated from three independent experiments.

[8] = test system: Plasmodium telomeric sequence FPf1T G-quadruplex; experiment: FRET melting assay, FPf1T; format: binding, Plasmodium falciparum; conditions: compound 2 μM, oligonucleotide 0.2 μM, K+ conditions
Experimental: as §2

[9] = test system: Plasmodium telomeric sequence FPf8T G-quadruplex; experiment: FRET melting assay, FPf8T; format: binding, Plasmodium falciparum; conditions: compound 2 μM, oligonucleotide 0.2 μM, K+ conditions
Experimental: as §2

[10] = test system: human duplex sequence FdxT; experiment: FRET melting assay, duplex control FdxT; format: binding; conditions: compound 2 μM, oligonucleotide 0.2 μM, K+ conditions
Experimental: as §2

SMILES | IC50 [1] [nM] | IC50 [2] [nM] | ΔTm FtrypBT [3] [°C] | IC50 [4] [nM] | CC50 at 72 h [5] [nM] | ΔTm F21T [6] [°C] | IC50 [7] [nM] | ΔTm FPf1T [8] [°C] | ΔTm FPf8T [9] [°C] | ΔTm FdxT [10] [°C]
c1ccc(-c2cc(CNCCCN3CCOCC3)nc3c2ccc2c(-c4ccccc4)cc(CNCCCN4CCOCC4)nc23)cc1 [Compound 1i] | 40 ± 10 | 1450 ± 580 | 6.0 | 290 ± 20 | 6290 ± 1060 | 8.2 | > 12500 | 6.7 | 6.7 | −1.5
c1ccc(-c2cc(CNCCN3CCCCC3)nc3c2ccc2c(-c4ccccc4)cc(CNCCN4CCCCC4)nc23)cc1 [Compound 1j] | 2600 ± 550 | 1590 ± 590 | 7.2 | 200 ± 20 | 1640 ± 140 | 7.7 | 2520 ± 200 | 5.6 | 7.3 | 0.2
c1ccc(-c2cc(CNCCCN3CCCCC3)nc3c2ccc2c(-c4ccccc4)cc(CNCCCN4CCCCC4)nc23)cc1 [Compound 1k] | 1650 ± 360 | 3180 ± 680 | 8.3 | 770 ± 100 | 4290 ± 520 | 12.0 | > 12500 | 12.8 | 14.0 | 0.4
c1ccc(-c2cc(CNCCc3cccnc3)nc3c2ccc2c(-c4ccccc4)cc(CNCCc4cccnc4)nc23)cc1 [Compound 1n] | 2540 ± 360 | 710 ± 110 | 5.2 | 430 ± 30 | 3100 ± 190 | 4.6 | 2670 ± 800 | 2.9 | 5.3 | −0.3
c1ccc(-c2cc(CNCCc3ccncc3)nc3c2ccc2c(-c4ccccc4)cc(CNCCc4ccncc4)nc23)cc1 [Compound 1o] | 1870 ± 580 | 730 ± 190 | 5.3 | 210 ± 10 | 19100 ± 2110 | 3.9 | 2690 ± 600 | 2.9 | 5.2 | −0.3
c1ccc(-c2cc(CNCCCc3ccncc3)nc3c2ccc2c(-c4ccccc4)cc(CNCCCc4ccncc4)nc23)cc1 [Compound 1p] | 145 ± 40 | 1020 ± 350 | 3.7 | 650 ± 50 | 3040 ± 190 | 3.6 | > 12500 | 3.5 | 3.9 | −1.1
